Key:
Format in all cases: cell-based, human
BFU-E [1] = test: Colony formation assay (CFA), cord blood LDMNC: BFU-E colonies; settings: for BFU-E progenitor number, fold increase: 2 U/ml Epo, ambient O2, vs vehicle control; for fold increase in BFU-E at 5% O2: 5% O2, 2 U/ml Epo, relative to untreated controls at ambient O2; for fold increase in BFU-E at 5% O2 / fold increase in BFU-E number over untreated controls (no addition) at 0.2 U/ml Epo: 1.0 mg/ml HAo or HEMOLINK; for fold increase in BFU-E number over untreated controls (no addition) at 0.2 U/ml Epo: 250 μM FeCl3
Method: This technique, referred to as the colony formation assay (CFA), is the most widely used biological assay to identify and enumerate erythroid progenitors present in hematopoietic tissue such as blood and bone marrow. Cell populations containing erythroid progenitors are plated in semi-solid suspensions of methyl cellulose, agar, low melting agarose or related substances in nutrient culture medium containing 1-3 U/ml Epo and 10 ng/ml IL-3 to specifically stimulate erythroid progenitors. Plates are incubated at 37° C. for 14 days during which time the erythroid progenitors form characteristic hemoglobinized (red) colonies. Two distinct but related erythroid progenitors can be distinguished based on colony size and morphology: BFU-E, the most primitive recognizable erythroid progenitor forms large multilobular colonies whereas the more mature CFU-E forms smaller spherical colonies.
Adult hemoglobin was purified according to U.S Pat. Nos. 5,439,591 and 5,545,328 to obtain HAo and HEMOLINK™ was prepared from HAo according to U.S. Pat. No. 5,532,352. Human umbilical cord blood intended for discard was collected from the umbilical vein of placentas immediately postpartum into 10 ml vacutainer tubes containing 143 USP units/ml sodium heparin. Low density mononuclear cells were separated from red blood cells by centrifugation over a 1.077 g/ml density gradient Cells removed from the plasma/density gradient interface were incubated overnight in a tissue culture flask with 10 ml cell culture medium containing 10% fetal bovine serum, and non-adherent LDMNC were further purified with an additional density gradient step. The LDMNC were then plated into colony formation assays (CFA) on the second day of isolation. In the CFA, LDMNC were plated at a density of 1×10^5 cells/ml in Iscoves modified Dulbeccos cell culture medium containing 0.8% methyl-cellulose, 30% fetal bovine serum, 1% bovine serum albumin, 0.1 mM 2-mercaptoethanol and 2 mM L-glutamine. Unless indicated otherwise, under standard CFA conditions 2 U/ml Epo and 10 ng/ml IL-3 are added to the formulation to stimulate hematopoietic progenitor growth, specifically BFU-E, CFU-E and CFU-GM.
Each condition was tested in duplicate in from 2-18 independent experiments. Cultures were maintained in a humidified incubator at 37° C., 5% CO2 and ambient oxygen tensions. The number of hematopoietic progenitors was scored between days 13-15 by counting the number and types of colonies present.
Erythroid progenitor colony formation assays were conducted as described in Example 1 except that cultures were incubated at either ambient oxygen tensions (˜20% O2) or 5% O2. The reduced oxygen tension of 5% O2 approximates the physiological intravascular oxygen tension in mammals. The mean fold increase in cord blood BFU-E, CFU-E and CFU-GM progenitor number at 5% O2 produced by 1.0 mg/ml HAo (15.6 μM; n=11) or HEMOLINK™ (15.6 μM; n=6), 100 μM hemin (n=10), 250 μM FeCl3 (n=6) or no addition (n=17-18), is shown FIG. 2. Results are expressed relative to control cells treated only with respective vehicles and cultured at ambient oxygen tensions (˜20% O2; fold expansion=1.0; *p<0.05, **p<0.01).
Erythroid progenitor colony formation assays were conducted as described in Example 1 except that cultures were initiated in the presence of Epo concentrations ranging from 0-2 U/ml. The mean fold increase in cord blood BFU-E, CFU-E and CFU-GM progenitor number produced by 1.0 mg/ml HAo (15.6 μM; n=9) or HEMOLINK™ (15.6 μM; n=6), 100 μM hemin (n=8), 250 μM FeCl3 (n=6), or no addition (n=9-10) in the presence of reduced Epo concentrations (0.2 U/ml) is shown in FIG. 3. Cultures were maintained at ambient oxygen tensions (˜20% O2) for 14 days. Results are expressed relative to control cells at 2 U/ml Epo treated only with the respective vehicles (solid line at fold expansion=1.0; *p<0.05, **p<0 01). Erythroid progenitor colonies were undetectable in the absence of Epo. […]

BFU-E [2] = test: Colony formation assay, CD34+/CD38- and CD34+/CD33- enriched cord blood cells: BFU-E; settings: 2 U/ml Epo, 5% O2, 14 days; vs untreated controls under same conditions
Source text: CD34^+/CD38^− cells were isolated from cord blood LDMNC using the STEMSEP™ system (StemCell Technologies Inc., Vancouver, Canada). The CD34^+/CD38^− cell purity was increased from <0.1% in unfractionated LDMNC to ˜81% CD34^+/CD38^− cells post fractionation as determined by flow cytometry. To obtain the CD34^+/CD33^− cells CD34^+ cells were first isolated from cord blood LDMNC using the CEPRATE™ LC system (CellPro Inc., Bothell, Wash.). The CD34^+/CD33^− fraction was then enriched to ˜94% purity by flow fluorescence activated cell sorting (FACS; Epics Elite, Coulter Electronics, Hialeah, Fla.). The colony formation assay was conducted as described in Examples 1-4, except that 1×10^3 CD34^+ cells/ml were plated versus 1×10^3 unfractionated cord blood LDMNC/ml normally plated. Mean fold increase in BFU-E and CFU-E progenitor number produced from CD34^+ CD38^− enriched (a; n=2) and CD34^+ CD33^− enriched (b; n=1) cord blood LDMNC stimulated by 1.0 mg/ml HAo (15.6 μM) or HEMOLINK™ (15.6 μM), 100 μM hemin 250 μM FeCl3 in the presence of 2 U/ml Epo is shown in FIG. 13. Cultures were maintained at 5% O2 for 14 days. The results are expressed relative cells treated only with the respective vehicles and cultured under the same conditions.

CFU-E = test: Colony formation assay (CFA), cord blood LDMNC: CFU-E colonies; settings: 5% O2, 0.2 U/ml Epo; 100 μM hemin, 1.0 mg/ml HAo or HEMOLINK; relative to controls at 2 U/ml Epo, ambient O2

Molecule	BFU-E progenitor number, fold increase (BFU-E [1]; dose 1.0 μM) [fold]	BFU-E progenitor number, fold increase (BFU-E [1]; dose 10 μM) [fold]	BFU-E progenitor number, fold increase (BFU-E [1]; dose 250 μM)	increase in BFU-E from CD34+ enriched progenitor populations (in words) (BFU-E [2])	BFU-E number at 0.2 U/ml Epo compared with untreated controls at 2 U/ml Epo (BFU-E [1]; 0.2 U/ml Epo, ambient O2, 100 μM hemin)	fold increase in BFU-E at 5% O2 (BFU-E [1]; 100 μM hemin) [fold]	fold increase in CFU-E at 0.2 U/ml Epo and 5% O2 (CFU-E) [fold]	fold increase in BFU-E number over untreated controls (no addition) at 0.2 U/ml Epo (BFU-E [1]; 0.2 U/ml Epo, ambient O2) [fold]	BFU-E progenitor number, fold increase (BFU-E [1]; dose 10 μg/ml) [fold]	BFU-E progenitor number, fold increase (BFU-E [1]; dose 100 μg/ml) [fold]	BFU-E progenitor number, fold increase (BFU-E [1]; dose 500 μg/ml)	reduction of toxicity of ganciclovir to BFU-E (BFU-E [1]; 1 mg/ml HEMOLINK plus 0-100 μM ganciclovir)
[Cl][Fe]([Cl])[Cl] [FeCl3]	1.2	1.4	*1.7 fold	to a lesser extent	–	–	–	–	–	–	–	–
C=CC1=C(C)C2=Cc3c(C=C)c(C)c4[n]3[Fe-2]35([Cl])[n]6c(c(C)c(CCC(=O)O)c6=CC6=[N+]3C(=C4)C(C)=C6CCC(=O)O)=CC1=[N+]25 [hemin]	0.9	1.5	2.2 fold	stimulated an increase in BFU-E	generated the same number of BFU-E as the untreated controls at 2 U/ml Epo	~8	3.2	–	–	–	–	–
HAo: adult human hemoglobin obtained from red blood cells and purified by displacement chromatography; uncross linked product	–	–	–	stimulated an increase in BFU-E	–	~8	2.1	3	1.1	1.3	**1.7 fold	–
HEMOLINK™: chemically crosslinked hemoglobin prepared by treating human hemoglobin with a polyaldehyde (O-raffinose)	–	–	–	stimulated an increase in BFU-E	–	~8	1.7	3	–	–	–	about 10 fold

Source: patent US20020120098A1, “Enhanced stimulation of erythropoiesis” (priority 1996, published 2002)
